Data as given in ChEMBL document CHEMBL3526069, “Human pharmacokinetic prediction of UDP-glucuronosyltransferase substrates with an animal scale-up approach” (Drug Metab Dispos, 2011).

Tests used:
clinical [1] = settings: human, in vivo
Description: (§1) Volume of distribution at steady state in human

[2] = Drug metabolism in bile duct-cannulated rat assessed as glucuronide concentration in bile and urine at 0.2 mg/kg, iv up to 24 hrs by LC/MS/MS analysis; assay type: ADME, organism-based; set-up: dose 0.2 mg/kg, route intravenous; settings: in vivo
[3] = Plasma clearance in human
[4] = Drug metabolism in gallbladder-cannulated mouse assessed as glucuronide concentration in bile and urine at 0.2 mg/kg, iv up to 24 hrs by LC/MS/MS analysis; assay type: ADME, organism-based; set-up: dose 0.2 mg/kg, route intravenous; settings: in vivo
in vitro [5] = settings: rhesus monkey, plasma
Description: Fraction unbound in monkey plasma by ultracentrifugation method

in vitro [6] = settings: dog, plasma
Description: Fraction unbound in dog plasma by ultracentrifugation method

in vitro [7] = settings: rat, plasma
Description: (§2) Fraction unbound in rat plasma by ultracentrifugation method

[8] = Drug metabolism in bile duct-cannulated cynomolgus monkey assessed as glucuronide concentration in bile and urine at 0.2 mg/kg, iv up to 24 hrs by LC/MS/MS analysis; settings: in vivo
[9] = Drug metabolism in human assessed as glucuronide concentration in urine
[10] = Plasma clearance in po dosed human
[11] = Drug metabolism in bile duct-cannulated dog assessed as glucuronide concentration in bile and urine at 0.2 mg/kg, iv up to 24 hrs by LC/MS/MS analysis; assay type: ADME, organism-based, Canis lupus familiaris; set-up: dose 0.2 mg/kg, route intravenous; settings: in vivo
clinical [12] = settings: human, in vivo; remark: listed apart in the source
in vitro [13] = settings: human, plasma
Description: (§3) Fraction unbound in human plasma by ultracentrifugation method

in vitro [14] = settings: mouse, plasma
Description: Fraction unbound in mouse plasma by ultracentrifugation method

in vitro [15] = settings: rhesus monkey
Description: Ratio of drug level in blood to plasma in monkey

in vitro [16] = settings: dog
Description: Ratio of drug level in blood to plasma in dog

in vitro [17] = settings: rat
Description: Ratio of drug level in blood to plasma in rat

in vitro [18] = settings: mouse
Description: Ratio of drug level in blood to plasma in mouse

in vitro [19] = settings: human
Description: Ratio of drug level in blood to plasma in human

Plasma [20] = settings: human
Description: as §3

Homo sapiens [21] = species on record: Homo sapiens; settings: in vivo
Description: as §1

Plasma [22] = settings: rat
Description: as §2

Homo sapiens [23] = species on record: Homo sapiens; settings: in vivo; remark: listed apart in the source

Structure (SMILES) | Vd (clinical [1]) [L/kg] | Fm [2] | clearance ([3]; plasma) [mL/min/kg] | Fm [4] | fraction unbound (in vitro [5]) | fraction unbound (in vitro [6]) | fraction unbound (in vitro [7]) | Fm [8] | Fm [9] | CL/F ([10]; plasma) [mL/min/kg] | Fm [11] | half-life (clinical [12]) [h] | fraction unbound (in vitro [13]) | fraction unbound (in vitro [14]) | blood plasma ratio (in vitro [15]) | blood plasma ratio (in vitro [16]) | blood plasma ratio (in vitro [17]) | blood plasma ratio (in vitro [18]) | blood plasma ratio (in vitro [19]) | also measured
C[C@H]1COc2c(N3CCN(C)CC3)c(F)cc3c(=O)c(C(=O)O)cn1c23.Cl [LEVOFLOXACIN HYDROCHLORIDE] | 1.2 | 0.644 | 1.9 | 0.229 | 0.871 | 0.922 | 0.826 | 0.82 | < 0.015 | 1.9 | 0.061 | 7.3 | 0.784 |  |  |  |  |  |  | 
Cc1cn([C@H]2C[C@H](N=[N+]=[N-])[C@@H](CO)O2)c(=O)[nH]c1=O [ZIDOVUDINE] |  | 0.02 |  | 0.034 |  | 0.827 | 0.734 | 0.08 | 0.85 | 33.3 | 0.134 | 0.832 | 0.695 | 0.896 |  |  |  |  |  | 
Cc1ccc(C)c(OCCCC(C)(C)C(=O)O)c1 [GEMFIBROZIL] | 1.11 | 0.366 |  | 0.173 | 0.007 | 0.004 | 0.01 | 0.35 | 0.4 |  | 0.69 | 7.6 | 0.005 | 0.041 | 0.67 | 0.64 | 0.83 | 0.68 | 0.75 | clearance ([3]; in vivo): 1.7 mL/min/kg; CL/F ([10]; in vivo): 1.73 mL/min/kg
CCCc1nc2c(C)cc(-c3nc4ccccc4n3C)cc2n1Cc1ccc(-c2ccccc2C(=O)O)cc1 |  | 0.396 |  | 0.118 | 0.008 | 0.018 | 0.007 | 0.47 |  | 17.8 | 0.99 | 7.29 | 0.003 | 0.071 | 1.16 | 1.18 | 1.25 | 0.54 | 1.24 | 
NS(=O)(=O)c1cc(C(=O)O)c(NCc2ccco2)cc1Cl [FUROSEMIDE] |  | 0.052 |  | 0.005 |  |  |  | 0.671 | 0.14 |  | 0.17 |  |  |  |  |  |  |  |  | 
CC(C(=O)O)c1cccc(C(=O)c2ccccc2)c1 (stereo not drawn) [KETOPROFEN] |  |  |  | 0.01 |  |  |  |  |  |  | 0.163 |  |  |  |  |  |  |  |  | 
CN(C)CCCN1c2ccccc2CCc2ccccc21.Cl [IMIPRAMINE HYDROCHLORIDE] | 12 | 0.014 |  |  | 0.03 |  |  | 0.04 | 0.1 |  | 0.005 | 10.7 | 0.104 | 0.063 |  |  |  |  |  | 
O=C1Nc2ccc(Cl)cc2C(c2ccccc2Cl)=NC1O (stereo not drawn) [LORAZEPAM] |  | 0.085 | 1.21 | 0.436 | 0.103 | 0.073 | 0.09 | 0.53 | 0.81 | 1.21 | 0.785 | 12.4 | 0.057 | 0.158 | 0.87 | 0.77 | 1.09 | 0.92 | 1.14 | 
COc1ccc2c(c1)c(CC(=O)O)c(C)n2C(=O)c1ccc(Cl)cc1 [INDOMETHACIN] | 0.925 | 0.004 | 1.58 | 0.001 | 0.005 | 0.005 | 0.004 | 0.94 | 0.217 | 1.58 | 0.01 | 6.77 |  | 0.009 | 1.06 | 0.65 | 0.97 | 0.46 | 0.98 | Fu (Plasma [20]): 0.1
O=C([O-])Cc1ccccc1Nc1c(Cl)cccc1Cl.[Na+] [DICLOFENAC SODIUM] | 0.22 | 0.065 |  | 0.261 | 0.005 | 0.003 | 0.006 | 0.29 | 0.15 |  | 0.522 | 0.726 | 0.003 | 0.005 | 1.01 | 1.01 | 1.57 | 0.67 | 0.71 | clearance ([3]; in vivo): 3.5 mL/min/kg; CL/F ([10]; in vivo): 6.48 mL/min/kg
O=C(c1ccc(OCCN2CCCCC2)cc1)c1c(-c2ccc(O)cc2)sc2cc(O)ccc12 [RALOXIFENE] |  | 0.214 | 14.7 | 0.243 | 0.004 | 0.003 |  | 0.38 | 0.9 |  | 0.196 |  | 0.002 | 0.006 |  |  |  |  |  | Vdss (Homo sapiens [21]): 47 L/kg; Fu (Plasma [22]): 0.004; t1/2 (Homo sapiens [23]): 36.9 h
COc1c(C)c2c(c(O)c1C/C=C(\C)CCC(=O)O)C(=O)OC2 [MYCOPHENOLIC ACID] | 4.75 | 0.096 | 3.31 | 0.966 | 0.011 | 0.003 | 0.004 | 0.54 | 0.9 | 3.54 | 0.99 | 16.6 |  | 0.028 | 0.97 | 0.75 | 0.94 | 0.81 | 0.69 | Fu (Plasma [20]): 0.003
